Columns and labels:
[1] = test system: EGFR-mutant NSCLC PC-9 cells; experiment: Apoptosis (caspase-3/7, IncuCyte) in combination with EGFR inhibitor Osimertinib; assay type: cell-based
Protocol: Apoptosis was detected by CellEvent Caspase 3/7 Green ReadyProbes Reagent (ThermoFisher), a fluorogenic indicator of activated caspase-3/7. Cell death (apoptsis) and cell growth (phase confluence) over time were captured by IncuCyte live cell imaging system (Essen Bioscience) and quantified by IncuCyte S3 software (Essen Bioscience). Apoptotic Index was calculated by dividing apoptosis signal with phase confluence.

[2] = molecular target: T1, TEAD1 protein (YAP Binding Domain) (Homo sapiens, UniProt P28347); experiment: TEAD1 lipid pocket compound displacement assay (CDA, TR-FRET); conditions: read-out: CDA IC50, displacement of Cy5-probe from His-TEAD1, 60 minutes at room temperature
T1 sequence (P28347 167-426 limits assumed): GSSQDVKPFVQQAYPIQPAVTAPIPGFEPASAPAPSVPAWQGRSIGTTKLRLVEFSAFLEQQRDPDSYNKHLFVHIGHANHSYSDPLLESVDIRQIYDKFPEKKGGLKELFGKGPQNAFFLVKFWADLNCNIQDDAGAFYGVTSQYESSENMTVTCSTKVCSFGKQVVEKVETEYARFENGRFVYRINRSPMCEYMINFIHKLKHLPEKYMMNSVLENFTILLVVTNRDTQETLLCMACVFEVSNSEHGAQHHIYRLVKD
Protocol: Compound Displacement Assay.
(§1) A TEAD1 lipid pocket displacement assay was carried out according to the following protocol. Purified His-tagged TEAD1 protein (YAP Binding Domain) was pre-mixed with a Cy5-probe (Cy5-conjugated to a small molecule that binds in the TEAD1 lipid pocket) and Terbium-labeled anti-His antibody (Cisbio Cat 61HI2TLB). The binding of the Cy5-probe to anti-His-Tb/His-tag TEAD1 complex yielded a TR-FRET signal. […] After 60 minutes incubation at room temperature of compounds with the His-TEAD1/anti-His-Tb/Cy5-probe complex, the plate was read on a plate reader (BMG ClarioStar Cat 430-1300) using TR-FRET mode with wavelengths of 665 nm/620 nm. The potency of compounds as TEAD1 lipid pocket binders was determined by IC50 value generated using a non-linear 4 parameter curve fit.

[3] = test system: mesothelioma cell line NCI-H226; experiment: 72H TEAD Proliferation Assay (Cell Titer-Glo 2.0); assay type: cell-based; conditions: Homo sapiens, CTG 2.0, cell line not given in Table 1 (NCI-H226 TEAD-responsive, NCI-H28 non-responsive counter-screen)
Protocol: 72H TEAD Proliferation Assay.
The effect of TEAD inhibition on cell proliferation was assayed using Cell Titer Glo (CTG) 2.0 to measure response in mesothelioma cell lines NCI-H226 (ATCC, #CRL-5826) and NCI-H28 (ATCC, #CRL-5820).
The 72H TEAD Proliferation assay utilizes Cell Titer-Glo 2.0 (Promega, #G9243) to measure the proliferation of cells in the presence or absence of compound. Cell Titer-Glo 2.0 determines the amount of viable cells by quantifying ATP (an indication of metabolically active cells). It utilizes the conversion of Luciferin to Oxyluciferin and a luminescent signal with the use of ATP to report the quantity of viable cells in culture. Within cells that are continually growing, ATP is being synthesized to meet their metabolic demands, meanwhile the opposite is true for cells that are dying or slowing down their proliferation and either no longer using ATP or are using less, respectively. The NF2-deficient NCI-H226 has been genetically validated as a cell line that is sensitive to TEAD inhibition. The NF2-wild type NCI-H28 has been genetically validated as a cell line that is not sensitive to TEAD inhibition and grows independently of TEAD activity.
Compounds were screened against the responsive NCI-H226 cell line to assess the compounds' ability to inhibit TEAD and cell growth. Compounds were also screened against the non-responsive NCI-H28 cell line to ascertain whether the inhibition of cell growth was due to inhibition of the target TEAD or whether the inhibition was due to off-target cytotoxicity.
Both NCI-H226 and NCI-H28 cells were grown at 37° C. with 5% CO2 using Growth Medium 1.
Anti-proliferative effect of compounds that inhibits TEAD activity measured by CTG
1) Assay ready plates (ARPs) were prepared by Echo acoustic liquid handler. For each compound, duplicate of 10-point half-log dilution series were dispensed in a 384-well microplate (Corning 3571).
3) Before use, ARPs were allowed to warm up to room temperature for 30 min.
4) ARPs were spun for 5 minutes at 1500RPM before removing the plate seals.
5) NCI-H226 or NCI-H28 cells were harvested from culture in Assay Medium 1 and the multidrop Combi reagent dispenser was used to seed cells at 500 cells per 50ul in each well of the ARPs and one Corning 3571 plate without compounds for Time 0 (TO) readout.
6) The TO plate was incubated for 2 hours at 37° C. with 5% CO2 to allow cells to settle, then the CTG Assay was performed.
7) All ARPs were incubated for 72 hours at 37° C. with 5% CO2, then the CTG Assay was performed for Time 72H (T72) readout.
8) CTG Assay: Bravo liquid handler (Agilent) was used to add 25ul of CTG 2.0 to all columns of the plate except for Column 24, which was used to subtract out the background. After CTG addition, plates were placed on shaker at 800RPM for 15 minutes at room temperature and kept in the dark. Luminescence was measured using EnVision multilabel plate reader with ultra-sensitive detection module.
9) Data Analysis: First background luminescence (no CTG wells) was subtracted from luminescence reading of all wells, then TO luminescence was subtracted from T72 luminescence. To compare anti-proliferative effect of compounds, GI50 was obtained by fitting dose response curves with nonlinear regression curve fit.

[4] = molecular target: T1, TEAD1 protein (YAP Binding Domain); experiment: biochemical
Protocol: Compound Displacement Assay.
as §1

Compound	GI50 [3]	IC50 [4]	other results
C=CC(=O)Nc1cc(Nc2nccc(-c3cn(C)c4ccccc34)n2)c(OC)cc1N(C)CCN(C)C [Osimertinib, reference compound]			Fold Change over DMSO at 48 hrs (apoptotic index) ([1]; Osimertinib (100 nM) alone): 2.6
COc1ccc2c(N3CCC(C(F)(F)F)CC3)nc(C(N)=O)cc2c1 [Compound 66]	1000 to 5000 nM		IC50 [2]: < 150 nM
COc1cc(N2CCC(C(F)(F)F)CC2)c2ncc(C(=O)N[C@H](C)CO)cc2c1 [Compound I-1, (R)-N-(1-hydroxypropan-2-yl)-6-methoxy-8-(4-(trifluoromethyl)piperidin-1-yl)quinoline-3-carboxamide]	500 to 1000 nM	150 to 300 nM	Fold Change over DMSO at 48 hrs (apoptotic index) ([1]; I-1 (10 μM) alone): 1.0; Fold Change over DMSO at 48 hrs (apoptotic index) ([1]; Osimertinib (100 nM) + I-1 (0.37 μM), 24 h Osimertinib pre-treatment): 4.1; Fold Change over DMSO at 48 hrs (apoptotic index) ([1]; Osimertinib (100 nM) + I-1 (1.1 μM), 24 h Osimertinib pre-treatment): 5.4; Fold Change over DMSO at 48 hrs (apoptotic index) ([1]; Osimertinib (100 nM) + I-1 (10 μM), 24 h Osimertinib pre-treatment): 7.0
COC[C@H](C)NC(=O)c1cnc2c(N3CCC(C(F)(F)F)CC3)cc(OC(F)(F)F)cc2c1 [Compound I-23, (S)-N-(1-methoxypropan-2-yl)-6-(trifluoromethoxy)-8-(4-(trifluoromethyl)piperidin-1-yl)quinoline-3-carboxamide]	1000 to 5000 nM	300 to 500 nM	
COc1cc(N2CCC(C(F)(F)F)CC2)c2ncc(C(=O)N[C@@H](C)C(=O)O)cc2c1 [Compound I-41, (6-methoxy-8-(4-(trifluoromethyl)piperidin-1-yl)quinoline-3-carbonyl)-L-alanine]	> 5000 nM	150 to 300 nM	
C#Cc1ccc(-c2cccc3cc(C(=O)N[C@@H](C)c4ccccn4)cnc23)cc1 [I′-29, (S)-8-(4-ethynylphenyl)-N-(1-(pyridin-2-yl)ethyl)quinoline-3-carboxamide]	1000 to 5000 nM	< 150 nM	
COc1cc(N2CCC(C(F)(F)F)CC2)c2ncc(C(=O)N[C@@H](C)c3cccc(C(=O)O)c3)cc2c1 [Compound I-43, (S)-3-(1-(6-methoxy-8-(4-(trifluoromethyl)piperidin-1-yl)quinoline-3-carboxamido)ethyl)benzoic acid]	> 5000 nM	< 150 nM	
C[C@H](CO)NC(=O)c1cnc2c(N3CCC(C(F)(F)F)CC3)cccc2c1 [Compound I-60, (R)-N-(1-hydroxypropan-2-yl)-8-(4-(trifluoromethyl)piperidin-1-yl)quinoline-3-carboxamide]	500 to 1000 nM	150 to 300 nM	
C[C@H](NC(=O)c1cnc2c(-c3ccc(C#N)cc3)cccc2c1)c1ccccn1 [I′-32, (S)-8-(4-cyanophenyl)-N-(1-(pyridin-2-yl)ethyl)quinoline-3-carboxamide]	1000 to 5000 nM	300 to 500 nM	
COc1cc(N2CCC(C(F)(F)F)CC2)c2ncc(C(=O)NC(C)(C)CO)cc2c1 [Compound I-10, N-(1-hydroxy-2-methylpropan-2-yl)-6-methoxy-8-(4-(trifluoromethyl)piperidin-1-yl)quinoline-3-carboxamide]	1000 to 5000 nM	300 to 500 nM	
COc1cccc([C@H](C)NC(=O)c2cnc3c(N4CCC(C(F)(F)F)CC4)cc(OC)cc3c2)c1 [Compound I-39, (S)-6-methoxy-N-(1-(3-methoxyphenyl)ethyl)-8-(4-(trifluoromethyl)piperidin-1-yl)quinoline-3-carboxamide]	≤ 500 nM	> 500 nM	
O=C(O)c1ccc2c(N3CCC(C(F)(F)F)CC3)cccc2c1 [Compound I-57, 5-(4-(Trifluoromethyl)piperidin-1-yl)-2-naphthoic acid]	> 5000 nM	150 to 300 nM	
COc1ccc2c(N3CCC(C(F)(F)F)CC3)nc(C(=O)O)cc2c1 [Compound 68, 6-methoxy-1-(4-(trifluoromethyl)piperidin-1-yl)isoquinoline-3-carboxylic acid]	> 5000 nM	> 500 nM	
COc1cc(-c2ccc(OCC(F)(F)F)cc2)c2ncc(C(=O)N[C@H](C)CO)cc2c1 [Compound I-18, (R)-N-(1-hydroxypropan-2-yl)-6-methoxy-8-(4-(2,2,2-trifluoroethoxy)phenyl)quinoline-3-carboxamide]	1000 to 5000 nM	150 to 300 nM	
COc1cc2cc(C(=O)N[C@@H](C)c3ccccn3)ccc2c(-c2ccc(C(F)(F)F)cc2)n1 [I″-55, (S)-3-methoxy-N-(1-(pyridin-2-yl)ethyl)-1-(4-(trifluoromethyl)phenyl)isoquinoline-6-carboxamide]	≤ 500 nM	< 150 nM	
COc1cc(N2CCC(C(F)(F)F)CC2)c2ncc(C(=O)N[C@@H](CO)C(C)C)cc2c1 [Compound I-35, (R)-N-(1-hydroxy-3-methylbutan-2-yl)-6-methoxy-8-(4-(trifluoromethyl)piperidin-1-yl) quinolone-3-carboxamide]	500 to 1000 nM	300 to 500 nM	
COc1cc(N2CCC(C(F)(F)F)CC2)c2ncc(C(=O)N[C@@H](C)c3ccccn3)cc2c1 [Compound I-37, (S)-6-methoxy-N-(1-(pyridin-2-yl)ethyl)-8-(4-(trifluoromethyl)piperidin-1-yl)quinoline-3-carboxamide]	≤ 500 nM	150 to 300 nM	
